This passage reports TGI and GI50 results from PubChem BioAssay (NCI).

Each structure is given as a SMILES string.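 A five-concentration, 48-hour dose response in 96-well plates underlies each endpoint, interpolated linearly between surrounding concentrations. GI50 is the concentration that inhibits growth by half. TGI marks complete inhibition of growth.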 Some results are limits rather than exact numbers.

Some test systems named below: NCI/ADR-RES ovarian; HL-60(TB) leukemia; MOLT-4 leukemia; 786-0 renal; HOP-62 NSCLC; A549 NSCLC; DU-145 prostate; HCT-116 colon; LOX IMVI melanoma; UACC-62 melanoma.
What all share (experiment): NCI-60 cell line screen, 48 h

Turning to `Clc1ccc2c(NC3CCC(N4CCCCC4)CC3)ccnc2c1` (configuration not stated), the TGI was greater than 100 µM with NCI/ADR-RES ovarian; 43.5 µM in the assay with HL-60(TB) leukemia; greater than 100 µM in the assay with MOLT-4 leukemia; 41.7 µM in the assay with 786-0 renal; greater than 100 µM in the assay with HOP-62 NSCLC; greater than 100 µM in the assay with A549 NSCLC. Moreover, the TGI is greater than 100 µM in the assay on DU-145 prostate, 44.7 µM in the assay with HCT-116 colon, 33 µM in the assay with LOX IMVI melanoma and 32.2 µM in the assay with UACC-62 melanoma.

For `N#C/C(=C\c1ccc[nH]1)c1cc(-c2ccc(Cl)cc2)nn1-c1ccccc1`, the GI50 in the assay on NCI/ADR-RES ovarian is 3.93 µM; in the assay with HL-60(TB) leukemia, 4.36 µM; with MOLT-4 leukemia, 2.52 µM; with 786-0 renal, 6.06 µM; in the assay on HOP-62 NSCLC, 7.63 µM; with A549 NSCLC, 6.92 µM. The GI50 in the assay with DU-145 prostate was 3.81 µM; in the assay on HCT-116 colon, 3.28 µM; in the assay on LOX IMVI melanoma it was 4.9 µM; with UACC-62 melanoma it was 7.39 µM. For the same compound, the TGI was greater than 31.4 µM in the assay with NCI/ADR-RES ovarian; 29.3 µM in the assay with HL-60(TB) leukemia; 8.23 µM in the assay on MOLT-4 leukemia; 27.5 µM in the assay with 786-0 renal; 24.2 µM in the assay with HOP-62 NSCLC; greater than 64.7 µM with A549 NSCLC. The TGI was greater than 40.7 µM with DU-145 prostate, 12.8 µM in the assay on HCT-116 colon, 16.8 µM in the assay with LOX IMVI melanoma and 28.2 µM in the assay with UACC-62 melanoma.

For `OC(c1cc(C(F)(F)F)nc2c(Cl)cc(Cl)cc12)C1CCCCN1` (configuration not stated), the TGI in the assay with NCI/ADR-RES ovarian was 30.2 µM; in the assay with HL-60(TB) leukemia it was 17.7 µM; in the assay on MOLT-4 leukemia, 22.9 µM; in the assay with 786-0 renal it was greater than 38.1 µM; in the assay on HOP-62 NSCLC it was 18.5 µM; in the assay with A549 NSCLC, greater than 52.2 µM. The TGI was 20 µM in the assay on DU-145 prostate, greater than 35.9 µM with HCT-116 colon, 14.8 µM in the assay on LOX IMVI melanoma and greater than 47.7 µM in the assay with UACC-62 melanoma.

`CC1Cc2c(Cl)ncnc2N(C)c2ccccc21` (configuration not stated): the GI50 is 2.69 µM in the assay with NCI/ADR-RES ovarian; 3.39 µM with HL-60(TB) leukemia; 3.46 µM in the assay on MOLT-4 leukemia; 3.23 µM with 786-0 renal; 3.08 µM in the assay on HOP-62 NSCLC; 4.85 µM in the assay on A549 NSCLC. Further, the GI50 with DU-145 prostate was 4.45 µM; in the assay on HCT-116 colon, 3.96 µM; in the assay with LOX IMVI melanoma, 1.71 µM; with UACC-62 melanoma it was 3.32 µM. Moreover, the TGI was 12.4 µM in the assay with NCI/ADR-RES ovarian; 15 µM in the assay on HL-60(TB) leukemia; greater than 100 µM with MOLT-4 leukemia; 11.5 µM in the assay on 786-0 renal; 14.7 µM in the assay on HOP-62 NSCLC; greater than 100 µM in the assay on A549 NSCLC. Further, the TGI in the assay with DU-145 prostate is greater than 100 µM; in the assay on HCT-116 colon it was 80.3 µM; in the assay on LOX IMVI melanoma it was 3.43 µM; with UACC-62 melanoma, 12.8 µM.

`COc1cc2c(cc1OCC(=O)Nc1ccc(Cl)cc1C(=O)c1ccccc1Cl)N=CC1CCCN1C2=O` (configuration not stated): the GI50 in the assay on NCI/ADR-RES ovarian is 21.5 µM; with HL-60(TB) leukemia, 16.3 µM; in the assay on MOLT-4 leukemia, 4.44 µM; in the assay with 786-0 renal, 12.4 µM; with HOP-62 NSCLC it was 13.8 µM; in the assay with A549 NSCLC, 16.8 µM. For the same compound, the GI50 in the assay with DU-145 prostate was 2.65 µM; in the assay on HCT-116 colon it was 7.18 µM; in the assay on LOX IMVI melanoma, 12.1 µM; with UACC-62 melanoma it was 15.2 µM. The TGI in the assay on NCI/ADR-RES ovarian is 64.8 µM; with HL-60(TB) leukemia it was 56.2 µM; with MOLT-4 leukemia, 28.2 µM; in the assay on 786-0 renal, 26 µM; in the assay on HOP-62 NSCLC, 28.6 µM; with A549 NSCLC, 33 µM. For the same compound, the TGI in the assay on DU-145 prostate stood at 8.56 µM; with HCT-116 colon, 20.5 µM; with LOX IMVI melanoma, 26.2 µM; with UACC-62 melanoma it was 29.2 µM.

As for `CC1=CC2(C)/C=C(C)/C=C\CC(O)/C=C3/C=CC(=C4C(=O)OC2(CC1C)C4=O)OC3` (configuration not stated), the GI50 with NCI/ADR-RES ovarian was 3.08 µM; in the assay with HL-60(TB) leukemia, 0.6 µM; with MOLT-4 leukemia, 0.47 µM; in the assay with 786-0 renal, 2.25 µM; in the assay on HOP-62 NSCLC it was 8.63 µM; with A549 NSCLC, 3.66 µM. The GI50 is 1.81 µM in the assay on DU-145 prostate, 0.541 µM with HCT-116 colon, 1.63 µM in the assay with LOX IMVI melanoma and 3.3 µM in the assay with UACC-62 melanoma. In addition, the TGI with NCI/ADR-RES ovarian is 12.2 µM; in the assay on HL-60(TB) leukemia, greater than 20.5 µM; in the assay on MOLT-4 leukemia it was greater than 20.4 µM; in the assay with 786-0 renal, 4.94 µM; in the assay with HOP-62 NSCLC, 26.2 µM; in the assay on A549 NSCLC, 16.8 µM. Also, the TGI in the assay on DU-145 prostate was 3.59 µM; in the assay on HCT-116 colon, 5.02 µM; in the assay with LOX IMVI melanoma it was 3.2 µM; in the assay with UACC-62 melanoma, 10.8 µM.

As to `CC1(C)OCC2OC(n3cnc4c(N)nc(Cl)nc43)C(OS(C)(=O)=O)C2O1` (configuration not stated), the TGI in the assay on NCI/ADR-RES ovarian, in the assay with HL-60(TB) leukemia, with MOLT-4 leukemia, in the assay on 786-0 renal, with HOP-62 NSCLC and in the assay with A549 NSCLC was greater than 100 µM each time. Besides, the TGI with DU-145 prostate, in the assay with HCT-116 colon, in the assay on LOX IMVI melanoma and in the assay on UACC-62 melanoma was greater than 100 µM in each case.

For `CCN1CCN(c2ccc(NC(=O)Nc3nc4ccc(-c5ccccc5OC)cc4s3)cc2)CC1`, the GI50 in the assay with NCI/ADR-RES ovarian is 1.72 µM; with HL-60(TB) leukemia, 1.73 µM; in the assay with MOLT-4 leukemia, 1.8 µM; in the assay on 786-0 renal it was 1.8 µM; in the assay with A549 NSCLC it was 1.98 µM; in the assay with DU-145 prostate it was 1.75 µM. The GI50 is 1.58 µM in the assay with HCT-116 colon, 1.7 µM in the assay on LOX IMVI melanoma and 1.87 µM with UACC-62 melanoma. The TGI with NCI/ADR-RES ovarian was 3.35 µM; in the assay with HL-60(TB) leukemia, 3.58 µM; in the assay with MOLT-4 leukemia it was 3.67 µM; in the assay with 786-0 renal, 3.28 µM; in the assay with A549 NSCLC, 3.59 µM; with DU-145 prostate, 3.26 µM. For the same compound, the TGI stood at 3.01 µM in the assay with HCT-116 colon, 3.17 µM in the assay on LOX IMVI melanoma and 3.45 µM with UACC-62 melanoma.

With `Cc1nc(N)c(N2CCN(S(=O)(=O)N(Cc3ccccc3)Cc3ccccc3)CC2)c(=O)[nH]1`, the TGI in the assay on NCI/ADR-RES ovarian is greater than 100 µM; with HL-60(TB) leukemia it was greater than 100 µM; with MOLT-4 leukemia it was greater than 100 µM; in the assay on 786-0 renal, greater than 100 µM; in the assay with HOP-62 NSCLC, 83.5 µM; in the assay with A549 NSCLC, greater than 100 µM. Also, the TGI in the assay with DU-145 prostate was 52.7 µM; in the assay with HCT-116 colon it was greater than 100 µM; with LOX IMVI melanoma, greater than 100 µM.
